Data published in patent publication US20250127907A1, “PARP INHIBITORS” (Stablix, Inc., priority 2023, published 2025).
pIC50: −log10 of the molar value. Like-named read-outs stand apart in the source and are kept apart here.

What was measured:
PARP1 [1] = biological target: T1, PARP1 (Homo sapiens, UniProt P09874); assay: PARP trapping assay in U2OS cells; type: cell-based; design: endogenous in cells; host or cells: U2OS
Procedure: U2OS cells are seeded at 15,000 cells/well in 90 ul medium and incubated in the TC incubator for overnight.
Next day, test compounds are prepared in a source plate along with addition of DNA damage reagent MMS simultaneously and 10 ul of the diluted mixture is added to the cell plate and incubated for 4 hrs under T/C conditions.
After 4 hrs, following aspiration and washing, add 100 ul of cold cytoskeleton removal buffer (0.5% Triton X-100) and incubated for 10 min. At the end of incubation, slowly the buffer is removed, and cells are fixed with ice cold MeOH for 15 min at −20C. Followed by wash steps, cells are blocked with 1×PBS/3% BSA/0.05% Tween for 1 h at room temperature.
Cells are stained with anti PARP1 antibody (abeam ab227244, 1:1000), in 1×PBS/1% BSA overnight at 4C.
Wash and add DAPI, scan cells in Celigo.
Data Analysis: DAPI staining is used to segment nuclei and AF488 fluorescence intensity per nucleus is measured.
(§1) The letter codes for the PARP1-enzyme assay include: A (<1 nM), B (>1-10 nM), C (>10-100 nM), D (>100-1000 nM), E (>1000 nM), and “-” is not tested. The letter codes for the PARP trapping assay, and parylation assay include: A (<10 nM), B (>10-100 nM), C (>100-1000 nM), […], E (>10000 nM), and “-” is not tested.
Target sequence in this assay (P09874 whole entry): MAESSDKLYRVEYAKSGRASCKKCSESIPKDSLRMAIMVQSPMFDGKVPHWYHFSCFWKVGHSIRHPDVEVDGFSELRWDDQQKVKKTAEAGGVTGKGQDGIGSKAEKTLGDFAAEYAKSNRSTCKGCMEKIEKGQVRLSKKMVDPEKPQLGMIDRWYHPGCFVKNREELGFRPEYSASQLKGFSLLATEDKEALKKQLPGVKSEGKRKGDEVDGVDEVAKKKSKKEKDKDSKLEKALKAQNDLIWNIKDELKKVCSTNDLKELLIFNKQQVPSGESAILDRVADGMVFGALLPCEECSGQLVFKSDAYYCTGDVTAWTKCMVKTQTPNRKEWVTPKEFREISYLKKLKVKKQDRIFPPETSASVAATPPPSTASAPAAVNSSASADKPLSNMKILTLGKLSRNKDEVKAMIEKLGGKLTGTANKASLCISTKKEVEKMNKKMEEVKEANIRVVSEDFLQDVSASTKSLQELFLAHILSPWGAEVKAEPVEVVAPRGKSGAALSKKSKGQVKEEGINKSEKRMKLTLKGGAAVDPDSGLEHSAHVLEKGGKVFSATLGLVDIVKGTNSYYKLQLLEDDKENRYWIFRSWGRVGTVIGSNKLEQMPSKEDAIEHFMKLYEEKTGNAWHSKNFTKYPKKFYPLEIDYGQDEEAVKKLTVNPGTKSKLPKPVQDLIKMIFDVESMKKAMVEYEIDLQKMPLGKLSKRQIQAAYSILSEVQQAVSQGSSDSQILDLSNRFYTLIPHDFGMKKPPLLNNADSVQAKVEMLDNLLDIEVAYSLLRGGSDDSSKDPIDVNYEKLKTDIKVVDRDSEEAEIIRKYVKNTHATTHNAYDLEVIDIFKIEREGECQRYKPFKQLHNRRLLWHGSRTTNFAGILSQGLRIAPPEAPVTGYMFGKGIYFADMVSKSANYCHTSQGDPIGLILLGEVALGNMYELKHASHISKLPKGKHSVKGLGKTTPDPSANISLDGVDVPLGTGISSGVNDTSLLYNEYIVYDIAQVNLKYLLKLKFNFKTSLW

[2] = tested on: Poly/Mono-ADP Ribose in U2OS cells; assay: PAR in cell western assay (parylation) in U2OS cells; type: cell-based; settings: read-out: Parylation (U2OS)
Procedure: U2OS cells are seeded at 2667 cells per well in 24 ul medium into poly-D lysine-coated 384 well plate and incubated in the TC incubator for O/N
The next day, test comps are diluted in a source plate and 6 μL of the diluted comp is added to the cell plate; mixed well and incubated for 6 hrs. DNA damage is induced with 2 mM H2O2 for 10 min. After discarding the medium, cells are fixed in ice cold Methanol at for 20 min at −20C. After a wash step at room temperature, cells are permeabilized with 0.05% NP-40 in PBS for 10 min, followed by wash steps. Cells are blocked with 1% BSA, at room temperature for 1 hr. Cells are stained with anti mono/polyADP ribose antibody (E6F6A, Cell signaling, 1:5000) in 1×PBS/1% BSA/0.05% Tween o/n at 4C.
Next Day, cells are washed and incubated with anti-Rabbit 800CV (Licor antibody, 1:500) and CellTag 700 (Licor, 1:800) in 1×PBS/1% BSA/0.05% Tween for 1 h. After washing, plates are scanned using LICOR and are quantified.
Parylation inhibition is reported as % control inhibition.
as §1

MDA-MB-436 cells = assay: Cell proliferation assay (MDA-MB-436); type: cell-based; settings: 7 days
Procedure: (§2) Cells are counted, diluted to desired density and 40 μL of cell suspension is added into each 384-well tissue-culture treated plates. Plates are incubated in Tissue Culture incubator at 37° C./5% C02 overnight.
(§3) Next day, 40 nl test compounds that are prepared from source plates are transferred to the seeded cells from overnight. Plates are incubated at 37° C./5% C02 for a total of 7 days. After 7-day incubation, plates are equilibrated to room temperature and 30 ul of Cell Counting-Lite is added to each well for a 30 min incubation followed by reading on EnVision.
(§4) The letter codes for the cell proliferation assay in A2780, HCC1806, and MDA-MB-436 cells include: A (<10 nM), B (>10-100 nM), C (>100-1000 nM), D (>1000-10000 nM), E (>10000 nM), and “-” is not tested.

A2780 cells = assay: Cell proliferation assay (A2780); type: cell-based; settings: 7 days
Procedure: as §2, §3, §4

PARP1 [3] = biological target: T1, PARP1; assay: PARP1-enzyme assay (NAD/NADH-Glo biochemical assay); settings: recombinant PARP1, NAD+ consumption
Procedure: The PARP enzyme catalyzes the transfer of ADP-Ribose from NAD+ onto PAR chains/histone substrates. The catalytic cycle is monitored indirectly with the NAD/NADH-Glo Assay kit from Promega. […] NAD+ consumed is determined by comparison to the no enzyme control.
• Recombinant PARP1 • NAD+/NAHD-Glow assay Kit • Activated DNA, 10 μg/mL • NAD+(Nicotinamide Adenine Dinucleotide), 500 nM • Protein substrate for PARP1: Core Histone from chicken, 10 μg/mL
as §1
Target sequence in this assay (P09874 whole entry, species assumed): as the sequence (P09874 whole entry) above

HCC1806 cells = assay: Cell proliferation assay (HCC1806); type: cell-based; settings: 7 days
Procedure: as §2, §3, §4

[4] = U2OS cells, MMS, 4 hrs, read-out: PARP Trapping (U2OS)
[5] = Homo sapiens, U2OS cells, 6 hrs, 2 mM H2O2

SMILES	pIC50 (PARP1 [1]; [4])	pIC50 [2, 5]	pIC50 (MDA-MB-436 cells; Homo sapiens, 168 h)	pIC50 (A2780 cells; Homo sapiens, 168 h)	pIC50 (PARP1 [3])	pIC50 ([2]; U2OS cells, 6 hrs, 2 mM H2O2)	pIC50 (MDA-MB-436 cells)	pIC50 (A2780 cells)	pIC50 (PARP1 [1])	pIC50 ([2]; Homo sapiens, U2OS, 6 h)	pIC50 (HCC1806 cells; Homo sapiens, 168 h)	pIC50 (HCC1806 cells)
CCc1cccc(-c2cnc(C(=O)N3CCC(CN4CCN(CC(=O)N5CCN(C(=O)c6cc(Cc7n[nH]c(=O)c8ccccc78)ccc6F)CC5)CC4)CC3)c(NC(=O)CNCc3cccc(C)c3)c2)c1 [Compound I-61]	7.00 to 8.00	6.00 to 7.00	7.00 to 8.00	6.00 to 7.00	> 9.00	–	–	–	–	–	–	–
CCc1cccc(-c2cnc(C(=O)NCCCCCNCC(=O)N3CCN(C(=O)c4cc(Cc5n[nH]c(=O)c6ccccc56)ccc4F)CC3)c(NC(=O)CNCc3cccc(C)c3)c2)c1 [Compound I-64]	6.00 to 7.00	6.00 to 7.00	7.00 to 8.00	6.00 to 7.00	> 9.00	–	–	–	–	–	–	–
CCOc1cc(OC)ccc1CNCC(=O)N1CCC[C@H](c2cccc(C(=O)N[C@@H](C(=O)N3CCC(CN4CCN(CC(=O)N5CCN(C(=O)c6cc(Cc7n[nH]c(=O)c8ccccc78)ccc6F)CC5)CC4)CC3)C3CCCCC3)c2)C1 [Compound I-168]	7.00 to 8.00	–	–	–	> 9.00	6.00 to 7.00	> 8.00	7.00 to 8.00	–	–	–	–
O=C(N[C@@H](C(=O)N1CCN(CC2CCN(CC(=O)N3CCN(C(=O)c4cc(Cc5n[nH]c(=O)c6ccccc56)ccc4F)CC3)CC2)CC1)C1CCCCC1)c1cccc(C2CCCN(C(=O)CNC3CC3)C2)c1 (stereo partly shown) [Compound I-183]	6.00 to 7.00	6.00 to 7.00	7.00 to 8.00	6.00 to 7.00	> 9.00	–	–	–	–	–	–	–
O=C(N[C@@H](C(=O)N1CCN(CC2CCN(CC(=O)N3CCN(C(=O)c4cc(Cc5n[nH]c(=O)c6ccccc56)ccc4F)CC3)CC2)CC1)C1CCCCC1)c1cccc(C2CCCN(C(=O)CNCc3ccc(F)cc3F)C2)c1 (stereo partly shown) [Compound I-184]	6.00 to 7.00	6.00 to 7.00	7.00 to 8.00	6.00 to 7.00	> 9.00	–	–	–	–	–	–	–
CCc1cccc(-c2cnc(C(=O)N3CCN(CC4CCN(CC(=O)N5CCN(C(=O)c6cc(Cc7n[nH]c(=O)c8ccccc78)ccc6F)CC5)CC4)CC3)c(NC(=O)CNCc3ccncn3)c2)c1 [Compound I-238]	6.00 to 7.00	6.00 to 7.00	7.00 to 8.00	5.00 to 6.00	> 9.00	–	–	–	–	–	–	–
O=C(N[C@@H](C(=O)N1CCN(CC2CCN(CC(=O)N3CCN(C(=O)c4cc(Cc5n[nH]c(=O)c6ccccc56)ccc4F)CC3)CC2)CC1)C1CCCCC1)c1cccc([C@H]2CCCN(C(=O)CNCc3ccc(F)cc3F)C2)c1 [Compound I-294]	6.00 to 7.00	7.00 to 8.00	7.00 to 8.00	6.00 to 7.00	8.00 to 9.00	–	–	–	–	–	–	–
O=C(N[C@@H](C(=O)N1CCN(CC2CCN(CC(=O)N3CCN(C(=O)c4cc(Cc5n[nH]c(=O)c6ccccc56)ccc4F)CC3)CC2)CC1)C1CCCCC1)c1cc(C2CCCN(C(=O)CNC3CC3)C2)ccc1F (stereo partly shown) [Compound I-323]	–	–	> 8.00	6.00 to 7.00	> 9.00	–	–	–	6.00 to 7.00	6.00 to 7.00	–	–
CCc1cccc(-c2cnc(C(=O)N3CCC(CN4CCN(CC(=O)N5CCN(C(=O)c6cc(Cc7n[nH]c(=O)c8ccccc78)ccc6F)CC5)CC4)CC3)c(NC(=O)CNCc3ccc(F)cc3F)c2)c1 [Compound I-331]	6.00 to 7.00	7.00 to 8.00	7.00 to 8.00	7.00 to 8.00	> 9.00	–	–	–	–	–	–	–
O=C(N[C@@H](C(=O)N1CCN(CC2CCN(CC(=O)N3CCN(C(=O)c4cc(Cc5n[nH]c(=O)c6ccccc56)ccc4F)CC3)CC2)CC1)C1CCCCC1)c1cc(C2CCCN(C(=O)CNCc3ccc(F)cc3F)C2)ccc1F (stereo partly shown) [Compound I-346]	6.00 to 7.00	7.00 to 8.00	7.00 to 8.00	6.00 to 7.00	> 9.00	–	–	–	–	–	–	–
O=C(N[C@@H](C(=O)N1CCN(CC2CCN(CC(=O)N3CCN(C(=O)c4cc(Cc5n[nH]c(=O)c6ccccc56)ccc4F)CC3)CC2)CC1)C1CCCCC1)c1cccc(C2CCCN(C(=O)COC3CC3)C2)c1 (stereo partly shown) [Compound I-353]	6.00 to 7.00	6.00 to 7.00	7.00 to 8.00	6.00 to 7.00	> 9.00	–	–	–	–	–	–	–
CC1(C(=O)N2CCC(c3cccc(C(=O)N[C@@H](C(=O)N4CCC(OC5CCN(CC(=O)N6CCN(C(=O)c7cc(Cc8n[nH]c(=O)c9ccccc89)ccc7F)CC6)CC5)CC4)C4CCCCC4)c3F)CC2)CC1 [Compound I-883]	7.00 to 8.00	7.00 to 8.00	> 8.00	7.00 to 8.00	–	–	–	–	–	–	7.00 to 8.00	–
CC1(C(=O)N2CC(c3cccc(C(=O)N[C@@H](C(=O)N4CCC(OC5CCN(CC(=O)N6CCN(C(=O)c7cc(Cc8n[nH]c(=O)c9ccccc89)ccc7F)CC6)CC5)CC4)C4CCCCC4)c3F)CCC2(C)C)CC1 (stereo partly shown) [Compound I-884]	7.00 to 8.00	6.00 to 7.00	> 8.00	7.00 to 8.00	–	–	–	–	–	–	7.00 to 8.00	–
CC1(OC2CCN(CC(=O)N3CCN(C(=O)c4cc(Cc5n[nH]c(=O)c6ccccc56)ccc4F)CC3)CC2)CCN(C(=O)[C@H](NC(=O)c2cccc(C3CCCN(C(=O)C45CC(C4)C5)C3)c2F)C2CCCCC2)CC1 (stereo partly shown) [Compound I-892]	7.00 to 8.00	6.00 to 7.00	7.00 to 8.00	6.00 to 7.00	–	–	–	–	–	–	6.00 to 7.00	–
CC1(OC2CCN(CC(=O)N3CCN(C(=O)c4cc(Cc5n[nH]c(=O)c6ccccc56)ccc4F)CC3)CC2)CCN(C(=O)[C@H](NC(=O)c2cccc(C3CCCN(C(=O)C4(C)CC4)C3)c2F)C2CCCCC2)CC1 (stereo partly shown) [Compound I-893]	7.00 to 8.00	6.00 to 7.00	7.00 to 8.00	6.00 to 7.00	–	–	–	–	–	–	6.00 to 7.00	–
O=C(N[C@@H](C(=O)N1CCN(CC(=O)N2CCN(C(=O)c3cc(Cc4n[nH]c(=O)c5ccccc45)ccc3F)CC2)CC1)C1CCCCC1)c1cccc(C2CCCN(C(=O)CNCc3ccc(F)cc3F)C2)c1 (stereo partly shown) [Compound I-963]	–	–	6.00 to 7.00	6.00 to 7.00	> 9.00	–	–	–	–	6.00 to 7.00	–	–
CC(C)(C)C(=O)N1CCC[C@@H](c2cccc(C(=O)N[C@@H](C(=O)N3C4CCC3CC(OC3CCN(CC(=O)N5CCN(C(=O)c6cc(Cc7n[nH]c(=O)c8ccccc78)ccc6F)CC5)CC3)C4)C3CCCCC3)c2F)C1 (stereo partly shown) [Compound I-971]	7.00 to 8.00	7.00 to 8.00	> 8.00	7.00 to 8.00	–	–	–	–	–	–	6.00 to 7.00	–
CC(C)(C)OC(=O)N[C@@H](C(=O)N1C[C@H]2CC[C@@H](C1)[C@H]2OC1CCN(CC(=O)N2CCN(C(=O)c3cc(Cc4n[nH]c(=O)c5ccccc45)ccc3F)CC2)CC1)C1CCCCC1 [Compound I-990]	7.00 to 8.00	7.00 to 8.00	> 8.00	7.00 to 8.00	–	–	–	–	–	–	7.00 to 8.00	–
CC(C)(C)OC(=O)N[C@@H](C(=O)NC12CCC(CN3CCC(C(=O)N4CCN(C(=O)c5cc(Cc6n[nH]c(=O)c7ccccc67)ccc5F)CC4)CC3)(CC1)OC2)C1CCCCC1 [Compound I-993]	7.00 to 8.00	–	–	–	–	7.00 to 8.00	> 8.00	7.00 to 8.00	–	–	–	7.00 to 8.00
